From patent US9616062B2, “Cyclin dependent kinase inhibitors and methods of use” (priority 2009, dated 2017)

What was measured:
[1] = system: renal cell proliferation in female FVB wt mice; test: EdU incorporation into whole kidney of cisplatin-treated mice (flow cytometry); format: in vivo, mouse; conditions: kidney single cell suspension, 72 h; cisplatin 15 mg/kg IP; PD0332991 100 mg/kg per day in chow or no drug
Procedure: FIG. 6: CDK4/6 inhibition blocks EdU incorporation into whole kidney in mice treated with cisplatin. […] EdU ([…]) was given IP every 24 hours prior to sacrifice. Kidneys were collected and single cell isolates were prepared and stained for EdU incorporation. Proliferation was assessed by flow cytometry. Data represents % of EdU staining in untreated, cisplatin-treated and cisplatin/PD0332991 treated cells.
[…] Proliferation was assessed by using BrdU (1 mg IP injection) every 6 hours for 24 hours prior to sacrifice or […] (0.1 mg IP) every 24 hours for 3 days prior to sacrifice.
Kidneys were harvested from mice and single cells were isolated using a gentleMACS™ tissue dissociator (Miltinyi Biotec, Bergisch Gladbach, Germany). Briefly, kidneys were cut into small pieces and placed in 10 ml collagenase (1 mg/ml) in a gentleMACS™ C tube (Miltinyi Biotec, Bergisch Gladbach, Germany). Tissue was dissociated following the manufacturer's recommendations (Miltinyi Biotec, Bergisch Gladbach, Germany). Cells were then incubated for 5 minutes in ACK buffer to lyse red blood cells, filtered and pelleted. Cells were resuspended in 4% paraformaldehyde and stored overnight at 4° C. For quantification of EdU incorporation, the cells were fixed, permeabilized, and stained with an APC EdU Flow Kit according to the manufacturer's instruction (Invitrogen Corporation, Carlsbad, Calif., United States of America). Flow cytometric analysis was performed using a CyAn ADP (Dako, Glostrup, Denmark). For each sample, a minimum of 500,000 cells was analyzed and the data were analyzed using FlowJo software (Tree Star, Inc., Ashland, Oreg., United States of America).
The kidney is relatively quiescent until challenged by a renal insult. Therefore, to determine whether renal cell proliferation was dependent on CDK4/6 activity in vivo, renal cell proliferation was stimulated by treating female FVB wt mice with cisplatin, a known nephrotoxic chemotherapeutic agent. At time 0 hr, mice were started on chow delivering PD0332991 100 mg/kg per day or standard chow with no drug. […]

[2] = system: murine memory and naive T cells; test: Homeostatic T cell proliferation in mice (BrdU incorporation, Ki67); format: in vivo, mouse; conditions: murine cells, acute inhibition
Procedure: FIG. 11A: Acute inhibition of CDK4/6 selectively suppresses memory T cell homeostatic proliferation in mice. Mice were treated with PD0332991 (150 mg/kg by oral gavage). Proliferation of T-cells were assessed using BrdU and flow cytometry.
Animals were treated with CDK4/6 inhibitor (PD0332991, open bars) or vehicle (shaded bars) for 24 hours and euthanized. Splenocytes were isolated and stained for B and T cell markers. After gating on appropriate populations, Ki67 staining was performed as an indicator of proliferation and S-phase. Error bars show +/−SEM.
Acute, pharmacologic inhibition of CDK4/6 suppresses lymphocyte proliferation with the most pronounced effect on memory T cell homeostatic proliferation and germinal center formation in mice. To determine whether inhibiting CDK4/6 affects memory cell generation and maintenance, mice were treated with selective CDK4/6 inhibitors, PD 0332991 or an unrelated selective CDK4/6 inhibitor, 2BrIC. 2BrIC was synthesized by OTAVA Chemicals (Kiev, Ukraine) and can be prepared according to methods described in Zhu et al., J. Med. Chem. 46, 2027-2030 (2003).

[3] = system: human peripheral blood T cells (memory and naive); test: Human peripheral blood T cell proliferation after PMA and ionomycin stimulation (BrdU, Ki-67 FACS); format: cell-based
Procedure: FIG. 13: CDK4/6 inhibitors suppress T cell proliferation upon stimulation through TCR pathway in both memory and naïve compartments. Human peripheral blood T cells were purified using Automacs by CD3 positive selection before being treated with CDK4/6 inhibitors and stimulated with PMA and Inomycin for 48 hrs. The proliferation of memory […] T cells after stimulation by PMA and Inomycin was measured by FACS staining of BrdU+ or Ki-67+ cells. The percentages of inhibition are shown, which indicates more inhibition of memory compartment than naïve compartment.
FIG. 14: CDK4/6 inhibitors suppress T cell proliferation upon stimulation through TCR pathway. […] Proliferation determined by BrdU or Ki67 incorporation. […]
FIG. 15: Changes of CD4 T cell composition after CDK4/6 inhibition. […] The memory and terminal differentiated T cell fractions as assessed by BrdU incorporation are reduced after CDK4/6 inhibition. […]
FIG. 16: Changes of CD4 T cell composition after CDK4/6 inhibition. […] The memory and terminal differentiated T cell fractions as assessed by Ki67 staining are reduced after CDK4/6 inhibition. […]
Similar results were seen using human lymphocytes. […] In FIG. 15, the effects of CDK4/6 inhibition on specific Tcell fractions is assessed, with and without TCR, showing CDK4/6 inhibition has a greater effect on proliferation of memory cells relative to naïve cells. […]

[4] = system: purified human peripheral B cells (CD19+); test: Human B cell proliferation after anti-IgM stimulation (BrdU incorporation); format: cell-based
Procedure: FIG. 20: CDK4/6 inhibitors suppress B cell proliferation after stimulation through BCR. B cells were purified by Automacs selection of CD19+ cells. The BrdU incorporation of purified human peripheral B cells was determined after anti-IgM stimulation with or without CDK4/6 inhibitor treatment. The fraction of proliferating B cells reduced ˜10 fold after L4D inhibition. L4D=2BrIC
Similar results were seen using human lymphocytes. […] Human lymphocytes are sorted to T(CD3+) and B(CD19+) cells and treated in vitro with CDK4/6 inhibitor prior to stimulation with PMA and Inomycin (P+I)+OKT3 (Tcells) or IgM (Bcells), with proliferation assessed by BrdU uptake and Ki67y expression, and activation assessed by CD25 expression. […] In FIG. 15, the effects of CDK4/6 inhibition on specific Tcell fractions is assessed, with and without TCR, showing CDK4/6 inhibition has a greater effect on proliferation of memory cells relative to naïve cells. […] These alterations in proliferation are associated with decreased T cell activation as measured by CD25 expression.
Cohorts of wild type mice were treated with vehicle or a CDK4/6 inhibitor as in FIG. 11. […] Unstimulated mice were treated for 24 hours with PD0332991 and homeostatic B cell proliferation measured by Ki67 staining after appropriate sorting. […]

## N.N.[Cl][Pt][Cl] [cisplatin]
[1]
  cells labeled with EdU: approximately 17%

## O=C1NC(=O)c2c1c1c3ccccc3[nH]c1c1[nH]c3cc(Br)ccc3c21 [2BrIC, 2-bromo-12,13-dihydro-5H-indolo[2,3-a]pyrrolo[3,4]-carbazole-5,6-dione]
[2]
  homeostatic proliferation of memory vs naive T cells (BrdU incorporation, Ki67 expression): more significant decrease in homeostatic proliferation of memory T cells than naive T cells
[3]
  proliferation of memory vs naive T cells (BrdU incorporation, Ki67 expression): more significant decrease in homeostatic proliferation of memory T cells than naive T cells
[4]
  reduction of the fraction of proliferating B cells (BrdU): ~10 fold
